The values below come from patent US9174964B2, “AMPK-activating piperidinyloxy-substituted 2,3-dihydro-1H-indene-1-amine compounds and pharmaceutical compositions including the same” (Rigel Pharmaceuticals, Inc., priority 2007, dated 2015).

As a reminder, the EC50 is the concentration that produces a half-maximal response.

Structures are written as SMILES. Counter-ions that a name gives are not always drawn.

The experiment concerns the target AMPK. Nature of the experiment: AMPK activation, enzyme-linked immunosorbent assay. It is filed as biochemical. As to conditions: ELISA. As to the method: Compounds 1-50 of Table 1 were assayed for their ability to activate AMPK using an enzyme-linked immunosorbent assay.
Compounds 51-60 of Table 1 were assayed for their ability to activate AMPK using an enzyme-linked immunosorbent assay.
Compounds 61-131 of Table 1 were assayed for their ability to activate AMPK using an enzyme-linked immunosorbent assay.
Compounds 137-141 and 143-155 of Table 1 were assayed for their ability to activate AMPK using an enzyme-linked immunosorbent assay.
Compounds 156-160 of Table 1 were assayed for their ability to activate AMPK using an enzyme-linked immunosorbent assay.
(In general: An ELISA detects its analyte on a solid surface through an enzyme-linked reagent.)

Consider `N#Cc1ccc(CN2CCC(Oc3ccc4oc(C(=O)NC5CCN(Cc6ccccc6)CC5)cc4c3)CC2)cc1` [Compound 70, N-(1-benzylpiperidin-4-yl)-5-(1-(4-cyanobenzyl)piperidin-4-yloxy)benzofuran-2-carboxamide], for which, for the setting “Table 4, AMPK activation”, the EC50 was less than 100 nM.

For `N#Cc1ccccc1CN1CCC(NC(=O)c2cc3ccc(OC4CCN(c5ccc(C(F)(F)F)cc5)CC4)cc3o2)CC1` [Compound 98, N-(1-(2-cyanobenzyl)piperidin-4-yl)-6-(1-(4-(trifluoromethyl)phenyl)piperidin-4-yloxy)benzofuran-2-carboxamide], the EC50 (Table 4, AMPK activation) was less than 100 nM.

For the setting “Table 2, AMPK activation”, `N#Cc1ccc(CN2CCC(NC(=O)c3ccc(OC4CCN(c5ccc(C(F)(F)F)cc5)CC4)cn3)CC2)cc1` [Compound 4, N-(1-(4-cyanobenzyl)piperidin-4-yl)-5-(1-(4-(trifluoromethyl)phenyl)piperidin-4-yloxy)picolinamide] returned an EC50 of less than 100 nM.

Consider `O=C(NC1CCN(C(=O)c2ccncc2)CC1)c1cc2cc(OC3CCN(c4ccc(C(F)(F)F)cc4)CC3)ccc2o1` [Compound 115, N-(1-isonicotinoylpiperidin-4-yl)-5-(1-(4-(trifluoromethyl)phenyl)piperidin-4-yloxy)benzofuran-2-carboxamide], for which the EC50 (Table 4, AMPK activation) is less than 100 nM.

`O=C(NC1CCN(Cc2ccncc2)CC1)c1cncc(OC2CCN(c3ccc(C(F)(F)F)cc3)CC2)c1` [Compound 14, N-(1-(pyridin-4-ylmethyl)piperidin-4-yl)-5-(1-(4-(trifluoromethyl)phenyl)piperidin-4-yloxy)nicotinamide] showed an EC50 (Table 2, AMPK activation) of less than 100 nM.

With `O=C(NC1CCN(Cc2ccccc2)CC1)c1ccc(OC2CCN(c3ccc(C(F)(F)F)cc3)CC2)cn1` [Compound 38, N-(1-benzylpiperidin-4-yl)-5-(1-(4-(trifluoromethyl)phenyl)piperidin-4-yloxy)picolinamide], the EC50 (Table 2, AMPK activation) fell in the range of 1000 to 5000 nM.

Where the note is “Table 5, AMPK activation”, `O=C(NC1CCN(Cc2ccncc2)CC1)c1cc2cc(OC3CCN(c4ccc(C(F)(F)F)cc4)CC3)ccc2s1` [Compound 138, N-(1-(pyridin-4-ylmethyl)piperidin-4-yl)-5-(1-(4-(trifluoromethyl)phenyl)piperidin-4-yloxy)benzo[b]thiophene-2-carboxamide] registered an EC50 of less than 100 nM.

`O=C(NC1CCN(Cc2ccc(F)cc2)CC1)c1cc(OC2CCN(c3ccc(C(F)(F)F)cc3)CC2)ccn1` [Compound 29, N-(1-(4-fluorobenzyl)piperidin-4-yl)-4-(1-(4-(trifluoromethyl)phenyl)piperidin-4-yloxy)picolinamide] showed an EC50 (Table 2, AMPK activation) of 100 to 500 nM.

Turning to `O=C(N[C@H]1CCNC1)c1ccc(OC2CCN(c3ccc(C(F)(F)F)cc3)CC2)cn1` [Compound 27, (S)-N-(pyrrolidin-3-yl)-5-(1-(4-(trifluoromethyl)phenyl)piperidin-4-yloxy)picolinamide], the EC50 (Table 2, AMPK activation) is more than 10000 nM.

For the compound `O=C(N[C@H]1CCN(Cc2ccc(F)cc2)C1)c1ccc(OC2CCN(c3ccc(C(F)(F)F)cc3)CC2)cn1` [Compound 32, (S)-N-(1-(4-fluorobenzyl)pyrrolidin-3-yl)-5-(1-(4-(trifluoromethyl)phenyl)piperidin-4-yloxy)picolinamide], the EC50 (Table 2, AMPK activation) was in the range of 100 to 500 nM.

In turn, `O=C(NCCCNCc1ccncc1)c1ccc(OC2CCN(c3ccc(C(F)(F)F)cc3)CC2)cn1` [Compound 50, N-(3-(pyridin-4-ylmethylamino)propyl)-5-(1-(4-(trifluoromethyl)phenyl)piperidin-4-yloxy)picolinamide] yielded an EC50 (Table 2, AMPK activation) of 1000 to 5000 nM.

Regarding `O=C(NC1CCNCC1)c1ccnc(OC2CCN(c3ccc(C(F)(F)F)cc3)CC2)c1` [Compound 19, N-(piperidin-4-yl)-2-(1-(4-(trifluoromethyl)phenyl)piperidin-4-yloxy)isonicotinamide], where the note is “Table 2, AMPK activation”, the EC50 was 1000 to 5000 nM.

`O=C(NC1CCN(Cc2ccccc2)CC1)c1cc2cc(OC3CCN(c4ccc(C(F)(F)F)cc4)CC3)ccc2o1` [Compound 75, N-(1-benzylpiperidin-4-yl)-5-(1-(4-(trifluoromethyl)phenyl)piperidin-4-yloxy)benzofuran-2-carboxamide]: where the note is “Table 4, AMPK activation”, the EC50 is less than 100 nM.

Under “Table 4, AMPK activation”, `O=C(NC1CCN(S(=O)(=O)c2cccnc2)CC1)c1cc2ccc(OC3CCN(c4ccc(C(F)(F)F)cc4)CC3)cc2o1` [Compound 106, N-(1-(pyridin-3-ylsulfonyl)piperidin-4-yl)-6-(1-(4-(trifluoromethyl)phenyl)piperidin-4-yloxy)benzofuran-2-carboxamide] registered a concentration for a half-maximal effect (EC50) of 100 to 500 nM.

In the case of `CC(C)(C)OC(=O)NCCCNC(=O)c1ccc(OC2CCN(c3ccc(C(F)(F)F)cc3)CC2)cn1` [Compound 49, tert-butyl 3-(5-(1-(4-(trifluoromethyl)phenyl)piperidin-4-yloxy)picolinamido) propylcarbamate], for the setting “Table 2, AMPK activation”, the EC50 was less than 100 nM.

For `O=C(NC1CCNCC1)c1sc2cc(OC3CCN(c4ccc(C(F)(F)F)cc4)CC3)ccc2c1Cl` [Compound 148, 3-chloro-N-(piperidin-4-yl)-6-(1-(4-(trifluoromethyl)phenyl)piperidin-4-yloxy)benzo[b]thiophene-2-carboxamide], the EC50 (Table 5, AMPK activation) is more than 50000 nM.

As for `N#Cc1ccc(CN2CCC(NC(=O)c3ccc(OC4CCN(c5ccc(C#N)cc5)CC4)cn3)CC2)cc1` [Compound 2, N-(1-(4-cyanobenzyl)piperidin-4-yl)-5-(1-(4-cyanophenyl)piperidin-4-yloxy)picolinamide], the EC50 (Table 2, AMPK activation) is less than 100 nM.

For the setting “Table 2, AMPK activation”, `N#Cc1ccc(CN2CC[C@H](NC(=O)c3ccc(OC4CCN(c5ccc(C(F)(F)F)cc5)CC4)cn3)C2)cc1` [Compound 31, (S)-N-(1-(4-cyanobenzyl)pyrrolidin-3-yl)-5-(1-(4-(trifluoromethyl)phenyl)piperidin-4-yloxy)picolinamide] had an EC50 of less than 100 nM.

In turn, `O=C(NC1CCN(CCc2ccccc2)CC1)c1ccc(OC2CCN(c3ccc(C(F)(F)F)cc3)CC2)cn1` [Compound 36, N-(1-phenethylpiperidin-4-yl)-5-(1-(4-(trifluoromethyl)phenyl)piperidin-4-yloxy)picolinamide] displayed an EC50 (Table 2, AMPK activation) of 500 to 1000 nM.

As for `O=C(NC1CCN(Cc2ccncc2)CC1)c1cc2cc(OC3CCN(c4ccc(OC(F)(F)F)cc4)CC3)ccc2o1` [Compound 78, N-(1-(pyridin-4-ylmethyl)piperidin-4-yl)-5-(1-(4-(trifluoromethoxy)phenyl)piperidin-4-yloxy)benzofuran-2-carboxamide trifluoroacetate salt], under “Table 4, AMPK activation”, the EC50 is less than 100 nM.

`CN(C(=O)c1cc2cc(OC3CCN(c4ccc(C(F)(F)F)cc4)CC3)ccc2o1)C1CCN(C(=O)c2ccncc2)CC1` [Compound 118, N-(1-isonicotinoylpiperidin-4-yl)-N-methyl-5-(1-(4-(trifluoromethyl)phenyl)piperidin-4-yloxy)benzofuran-2-carboxamide] registered an EC50 (Table 4, AMPK activation) of 100 to 500 nM.

The compound `N#Cc1ccc(N2CCC(Oc3ccc(S(=O)(=O)NC4CCN(Cc5ccncc5)CC4)cn3)CC2)cc1` [Compound 52, N-(1-(pyridin-4-ylmethyl)piperidin-4-yl)-6-(1-(4-cyanophenyl)piperidin-4-yloxy)pyridine-3-sulfonamide] displayed an EC50 (Table 3, AMPK activation) of 100 to 500 nM.

Compound `O=C(NC1CCN(Cc2ccc(F)cc2)CC1)c1cc2ccc(OC3CCN(c4ccc(C(F)(F)F)cc4)CC3)cc2o1` [Compound 91, N-(1-(4-fluorobenzyl)piperidin-4-yl)-6-(1-(4-(trifluoromethyl)phenyl)piperidin-4-yloxy)benzofuran-2-carboxamide] came in with an EC50 (Table 4, AMPK activation) of more than 50000 nM.

On to `O=C(NC1CCN(Cc2ccc(F)cc2)CC1)c1cncc(OC2CCN(c3ccc(C(F)(F)F)cc3)CC2)c1` [Compound 16, N-(1-(4-fluorobenzyl)piperidin-4-yl)-5-(1-(4-(trifluoromethyl)phenyl)piperidin-4-yloxy)nicotinamide], for which the EC50 (Table 2, AMPK activation) is less than 100 nM.

`N#Cc1ccc(CN2CCC(NC3CCc4cc(OC5CCN(c6ccc(C(F)(F)F)cc6)CC5)ccc43)CC2)cc1` (stereo not drawn) [Compound 160, 4-((4-(5-(1-(4-(trifluoromethyl)phenyl)piperidin-4-yloxy)-2,3-dihydro-1H-inden-1-ylamino)piperidin-1-yl)methyl)benzonitrile]: the EC50 (Table 6, AMPK activation) is less than 500 nM.

Turning to `CC(C)(C)OC(=O)N1CCC(NC(=O)c2ccc(OC3CCN(c4ccc(C(F)(F)F)cc4)CC3)nc2)CC1` [Compound 9, tert-butyl 4-(6-(1-(4-(trifluoromethyl)phenyl)piperidin-4-yloxy)nicotinamido) piperidine-1-carboxylate], the EC50 (Table 2, AMPK activation) lay within 100 to 500 nM.

Under “Table 2, AMPK activation”, `O=C(NC1CN(Cc2ccncc2)C1)c1ccc(OC2CCN(c3ccc(C(F)(F)F)cc3)CC2)cn1` [Compound 42, N-(1-(pyridin-4-ylmethyl)azetidin-3-yl)-5-(1-(4-(trifluoromethyl)phenyl)piperidin-4-yloxy)picolinamide] returned an EC50 of 1000 to 5000 nM.

On to `O=C(NC1CCN(Cc2cccnc2)CC1)c1cncc(OC2CCN(c3ccc(C(F)(F)F)cc3)CC2)c1` [Compound 18, N-(1-(pyridin-3-ylmethyl)piperidin-4-yl)-5-(1-(4-(trifluoromethyl)phenyl)piperidin-4-yloxy)nicotinamide], for which the EC50 (Table 2, AMPK activation) is less than 100 nM.

`O=C(NC1CCN(Cc2cccnc2)CC1)c1ccc(OC2CCN(c3ccc(C(F)(F)F)cc3)CC2)cn1` [Compound 5, N-(1-(pyridin-3-ylmethyl)piperidin-4-yl)-5-(1-(4-(trifluoromethyl)phenyl)piperidin-4-yloxy)picolinamide] yielded an EC50 (Table 2, AMPK activation) of less than 100 nM.

Under “Table 4, AMPK activation”, `CN(C(=O)c1cc2cc(OC3CCN(c4ccc(C(F)(F)F)cc4)CC3)ccc2o1)C1CCN(Cc2ccc(C(F)(F)F)cc2)CC1` [Compound 119, N-methyl-N-(1-(4-(trifluoromethyl)benzyl)piperidin-4-yl)-5-(1-(4-(trifluoromethyl)phenyl)piperidin-4-yloxy)benzofuran-2-carboxamide] gave an EC50 of less than 100 nM.
